The star is where a group is joined. Palmitoyl = CCCCCCCCCCCCCCCC(=O)*
Assay: Compound gel-forming ability in water (visual inspection, tube tapping assay, tilted tube assay);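 also: peptides mixed with de-ionized water at about 22-25 °C, judged after 20 min by eye plus tube tapping (10 taps, moves counted) and 90° tilt mobility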
Format: physicochemical
Conditions: for gel formation at 20% w/w: 20% w/w in water; for gel formation in aqueous solution, 6% / gel formation in aqueous solution, 11% / gel formation in aqueous solution, 20% / gel formation in aqueous solution, 3%: Table 3; for gel formation in aqueous solution, 6% / propensity to form gels, chimeric or mutated polypeptides, 6%: 6% w/w; for gel formation in aqueous solution, 11% / propensity to form gels, chimeric or mutated polypeptides, 11%: 11% w/w; for gel formation in aqueous solution, 20% / propensity to form gels, chimeric or mutated polypeptides, 20%: 20% w/w; for propensity to form gels, chimeric or mutated polypeptides, 6% / propensity to form gels, chimeric or mutated polypeptides, 11% / propensity to form gels, chimeric or mutated polypeptides, 20% / propensity to form gels, chimeric or mutated polypeptides, 3%: Table 5; for gel formation at 11% w/w: 11% w/w in water; for gel formation at 6% w/w: 6% w/w in water; for propensity to form gels, chimeric or mutated polypeptides, 3% / gel formation in aqueous solution, 3%: 3% w/w; for Physical property at 11% w/w: Table 2, 11% w/w in aqueous solution, room temperature

| Substance | gel formation in aqueous solution, 6% | gel formation in aqueous solution, 11% | propensity to form gels, chimeric or mutated polypeptides, 6% | propensity to form gels, chimeric or mutated polypeptides, 11% | Physical property at 11% w/w | other results |
| --- | --- | --- | --- | --- | --- | --- |
| Pal-HSYADAIFTNSYRKVLGQLSARKLLQDIMSR-NH2 (Palmitoyl-HSYADAIFTNSYRKVLGQLSARKLLQDIMSR-NH2; SMILES CCCCCCCCCCCCCCCC(=O)N[C@@H](Cc1c[nH]cn1)C(=O)N[C@@H](CO)C(=O)N[C@@H](Cc1ccc(O)cc1)C(=O)N[C@@H](C)C(=O)N[C@@H](CC(=O)O)C(=O)N[C@@H](C)C(=O)N[C@H](C(=O)N[C@@H](Cc1ccccc1)C(=O)N[C@H](C(=O)N[C@@H](CC(N)=O)C(=O)N[C@@H](CO)C(=O)N[C@@H](Cc1ccc(O)cc1)C(=O)N[C@@H](CCCNC(=N)N)C(=O)N[C@@H](CCCCN)C(=O)N[C@H](C(=O)N[C@@H](CC(C)C)C(=O)NCC(=O)N[C@@H](CCC(N)=O)C(=O)N[C@@H](CC(C)C)C(=O)N[C@@H](CO)C(=O)N[C@@H](C)C(=O)N[C@@H](CCCNC(=N)N)C(=O)N[C@@H](CCCCN)C(=O)N[C@@H](CC(C)C)C(=O)N[C@@H](CC(C)C)C(=O)N[C@@H](CCC(N)=O)C(=O)N[C@@H](CC(=O)O)C(=O)N[C@H](C(=O)N[C@@H](CCSC)C(=O)N[C@@H](CO)C(=O)N[C@@H](CCCNC(=N)N)C(N)=O)[C@@H](C)CC)C(C)C)[C@@H](C)O)[C@@H](C)CC) [SEQ ID NO:237] | AS/IS (AS/IS for aqueous solution or insoluble) | AS/IS (AS/IS for aqueous solution or insoluble) | AS/IS | AS/IS | – | gel formation at 20% w/w: semisolid gel; gel formation in aqueous solution, 20%: SS (SS for semisolid gel); propensity to form gels, chimeric or mutated polypeptides, 20%: SS (An ability to form semisolid gel is represented by an SS) |
| Pal-HSYEEMQRR-NH2 [SEQ ID NO:250] | AS/IS (AS/IS for aqueous solution or insoluble) | SS (SS for semisolid gel) | AS/IS | SS (An ability to form semisolid gel is represented by an SS) | – | gel formation at 11% w/w: semisolid gel |
| Pal-HSYFFGLM-NH2 [SEQ ID NO:253] | AS/IS (AS/IS for aqueous solution or insoluble) | SS (SS for semisolid gel) | AS/IS | SS (An ability to form semisolid gel is represented by an SS) | – | – |
| Pal-HSYGTFTSDVSSYLEGQAAKEFIAWLVKGR-NH2 (Palmitoyl-HSYGTFTSDVSSYLEGQAAKEFIAWLVKGR-NH2; SMILES CCCCCCCCCCCCCCCC(=O)N[C@@H](Cc1c[nH]cn1)C(=O)N[C@@H](CO)C(=O)N[C@@H](Cc1ccc(O)cc1)C(=O)NCC(=O)N[C@H](C(=O)N[C@@H](Cc1ccccc1)C(=O)N[C@H](C(=O)N[C@@H](CO)C(=O)N[C@@H](CC(=O)O)C(=O)N[C@H](C(=O)N[C@@H](CO)C(=O)N[C@@H](CO)C(=O)N[C@@H](Cc1ccc(O)cc1)C(=O)N[C@@H](CC(C)C)C(=O)N[C@@H](CCC(=O)O)C(=O)NCC(=O)N[C@@H](CCC(N)=O)C(=O)N[C@@H](C)C(=O)N[C@@H](C)C(=O)N[C@@H](CCCCN)C(=O)N[C@@H](CCC(=O)O)C(=O)N[C@@H](Cc1ccccc1)C(=O)N[C@H](C(=O)N[C@@H](C)C(=O)N[C@@H](Cc1c[nH]c2ccccc12)C(=O)N[C@@H](CC(C)C)C(=O)N[C@H](C(=O)N[C@@H](CCCCN)C(=O)NCC(=O)N[C@@H](CCCNC(=N)N)C(N)=O)C(C)C)[C@@H](C)CC)C(C)C)[C@@H](C)O)[C@@H](C)O) [SEQ ID NO:221] | SS (SS for semisolid gel) | – | SS (An ability to form semisolid gel is represented by an SS) | – | – | – |
| Pal-HSYH-(D-Phe)-RWGKPV-NH2 [SEQ ID NO:273] | – | SS (SS for semisolid gel) | – | SS (An ability to form semisolid gel is represented by an SS) | – | gel formation in aqueous solution, 20%: SS (SS for semisolid gel); propensity to form gels, chimeric or mutated polypeptides, 20%: SS (An ability to form semisolid gel is represented by an SS) |
| Pal-HSYKRPPGFS-(DβNal)-Ile-NH2 [SEQ ID NO:261] | – | SS (SS for semisolid gel) | – | SS (An ability to form semisolid gel is represented by an SS) | – | gel formation at 6% w/w: liquid gel; gel formation at 11% w/w: semisolid gel; propensity to form gels, chimeric or mutated polypeptides, 3%: AS/IS |
| Pal-HSYRPKPQQFF-Sar-L-Met-(02)-NH2 [SEQ ID NO:254] | – | – | – | – | – | gel formation in aqueous solution, 20%: SS (SS for semisolid gel); propensity to form gels, chimeric or mutated polypeptides, 20%: SS (An ability to form semisolid gel is represented by an SS) |
| Pal-HSYSLDVPIGLLQILLEQARARAAREQATTNARILARVGHC-NH2 [SEQ ID NO:265] | – | AS/IS (AS/IS for aqueous solution or insoluble) | – | AS/IS | – | gel formation at 20% w/w: semisolid or liquid gel |
| Pal-HSYVMGHFRWDRF-NH2 [SEQ ID NO:260] | – | – | – | – | – | gel formation at 6% w/w: liquid gel |
| Pal-KPSSPHSY-NH2 (Palmitoyl-KPSSPHSY-NH2; SMILES CCCCCCCCCCCCCCCC(=O)N[C@@H](CCCCN)C(=O)N1CCC[C@H]1C(=O)N[C@@H](CO)C(=O)N[C@@H](CO)C(=O)N1CCC[C@H]1C(=O)N[C@@H](Cc1c[nH]cn1)C(=O)N[C@@H](CO)C(=O)N[C@@H](Cc1ccc(O)cc1)C(N)=O) [SEQ ID NO:118] | – | – | – | – | SS (SS for semisolid gel) | – |
| Pal-KSY-NH2 [SEQ ID NO:121] | – | – | – | – | SS (SS for semisolid gel) | – |
| Pal-KVQKLAHQIYQFTD(Aib)DSAPVDPSSPHSY-NH2 [SEQ ID NO:124] | – | – | – | – | SS (SS for semisolid gel) | – |
| Pal-KVQKLAHQIYQFTDK(Aib)SAPVDPSSPHSY-NH2 [SEQ ID NO:125] | – | – | – | – | AS/IS (AS/IS for aqueous solution or insoluble) | – |
| Pal-KVQKLAHQIYQFTDKD(Aib)APVDPSSPHSY-NH2 [SEQ ID NO:126] | – | – | – | – | SS (SS for semisolid gel) | – |
| Pal-KVQKLAHQSAPVDPSSPHSY-NH2 [SEQ ID NO:105] | – | – | – | – | AS/IS (AS/IS for aqueous solution or insoluble) | – |
| Pal-KVQKLNFVPTNVGSKAF-NH2 [SEQ ID NO:135] | – | – | – | – | AS/IS (AS/IS for aqueous solution or insoluble) | – |
| Pal-KVQKLNFVPTNVGSKAY-NH2 (Palmitoyl-KVQKLNFVPTNVGSKAY-NH2; SMILES CCCCCCCCCCCCCCCC(=O)N[C@@H](CCCCN)C(=O)N[C@H](C(=O)N[C@@H](CCC(N)=O)C(=O)N[C@@H](CCCCN)C(=O)N[C@@H](CC(C)C)C(=O)N[C@@H](CC(N)=O)C(=O)N[C@@H](Cc1ccccc1)C(=O)N[C@H](C(=O)N1CCC[C@H]1C(=O)N[C@H](C(=O)N[C@@H](CC(N)=O)C(=O)N[C@H](C(=O)NCC(=O)N[C@@H](CO)C(=O)N[C@@H](CCCCN)C(=O)N[C@@H](C)C(=O)N[C@@H](Cc1ccc(O)cc1)C(N)=O)C(C)C)[C@@H](C)O)C(C)C)C(C)C) [SEQ ID NO:139] | – | – | – | – | SS (SS for semisolid gel) | – |
| Pal-KVQKLSAPVDPSSPHSY-miniPEG-(D-Tyr)QWAV(β-Ala)HF(Nle)-NH2 [SEQ ID NO:209] | SS (SS for semisolid gel) | SS (SS for semisolid gel) | SS (An ability to form semisolid gel is represented by an SS) | SS (An ability to form semisolid gel is represented by an SS) | – | gel formation in aqueous solution, 3%: SS (SS for semisolid gel); propensity to form gels, chimeric or mutated polypeptides, 3%: SS (An ability to form semisolid gel is represented by an SS) |
| Pal-KVQKLSAPVDPSSPHSY-miniPEG-CSNLSTCVLGKLSQELHKLQTYPRTNTGSGTP-NH2 [SEQ ID NO:217] | – | SS (SS for semisolid gel) | – | SS (An ability to form semisolid gel is represented by an SS) | – | gel formation at 6% w/w: liquid gel; gel formation at 11% w/w: semisolid gel |
| Pal-KVQKLSAPVDPSSPHSY-miniPEG-CYFQNCPRG-NH2 [SEQ ID NO:204] | SS (SS for semisolid gel) | SS (SS for semisolid gel) | SS (An ability to form semisolid gel is represented by an SS) | SS (An ability to form semisolid gel is represented by an SS) | – | gel formation at 6% w/w: semisolid gel; gel formation at 11% w/w: semisolid gel |
| Pal-KVQKLSAPVDPSSPHSY-miniPEG-CYIQNCPLG-NH2 [SEQ ID NO:205] | – | SS (SS for semisolid gel) | – | SS (An ability to form semisolid gel is represented by an SS) | – | gel formation at 6% w/w: liquid gel; gel formation at 11% w/w: semisolid gel |
| Pal-KVQKLSAPVDPSSPHSY-miniPEG-EHWSY-(D-2Nal)-LRPG-NH2 [SEQ ID NO:201] | SS (SS for semisolid gel) | SS (SS for semisolid gel) | SS (An ability to form semisolid gel is represented by an SS) | SS (An ability to form semisolid gel is represented by an SS) | – | gel formation at 3% w/w (3% w/w in water): semisolid gel; gel formation at 6% w/w: semisolid gel; gel formation at 11% w/w: semisolid gel; gel formation in aqueous solution, 3%: SS (SS for semisolid gel); propensity to form gels, chimeric or mutated polypeptides, 3%: SS (An ability to form semisolid gel is represented by an SS) |
| Pal-KVQKLSAPVDPSSPHSY-miniPEG-HAEGTFTSDVSSYLEGQAAKEFIAWLVKGR-NH2 [SEQ ID NO:220] | – | SS (SS for semisolid gel) | – | SS (An ability to form semisolid gel is represented by an SS) | – | – |
| Pal-KVQKLSAPVDPSSPHSY-miniPEG-RPKPQQFFGLM-NH2 [SEQ ID NO:215] | AS/IS (AS/IS for aqueous solution or insoluble) | SS (SS for semisolid gel) | AS/IS | SS (An ability to form semisolid gel is represented by an SS) | – | – |
